The data set concerns BALB/3T3 clone A31. Description: in vitro 3T3 NRU phototoxicity test. The data set is classed as cell-based. Particulars: for PIF (Photo irritation factor): calculated from IC50 with and without UV (Phototox 2.6). The procedure: This test was to evaluate phototoxicity after treating cells of BALB/3T3 clone A31 with a sample in the in vitro 3T3 NRU phototoxicity test. The phototoxicity was identified by evaluating cell viability, IC50 according to the presence or absence of light irradiation, and phototoxicity according to concentration response [photo irritation factor (PIF), and mean photo effect (MPE)].
In addition, as a negative control group, PBS diluted in DMEM was used.
Each of test substances was dissolved in PBS and diluted in steps at […] 2.
UVA (315-400 nm) causing a phototoxic reaction by activating chemical materials without toxicity to cells was irradiated, and the amount of light was 5 J/cm^2.
100 μl of cell suspension (1×10^4 cells/well) and medium were dispensed into two 96 well plates per group, and the cells were cultured for 24 hours in a cell incubator at 37° C. and 5% CO^2.
After removing the medium, the cells were washed once with 150 μl of warm PBS.
The UV irradiation plate was irradiated with UVA at a light intensity of 5 J/cm^2, and while UV was irradiated, the non-irradiated plate was shielded with aluminum foil and left at room temperature. After removing the solution, washing was performed twice with 150 μl of warm PBS. 100 μl of the medium was dispensed and the cells were cultured for 20±2 hours in a cell incubator at 37° C. and 5% CO2.
The growth and morphology of the cells were observed using a microscope, the medium was removed therefrom, and then the cells were washed once with 150 μl of warm PBS. After dispensing 100 μl of neutral red medium, the cells were incubated for 3 hours in a cell incubator at 37° C. and 5% CO2. After removing the neutral red medium, the cells were washed once with 150 μl of warm PBS. 150 μl of neutral red extract was dispensed, and the plate was stirred for 10 minutes while light was shielded.
Absorbance was measured at a wavelength of 540 nm by using a multi-channel microplate reader.
Phototoxicity was judged by calculating PIF and MPE values using IC50 according to the presence or absence of light irradiation.
PIF and MPE values were calculated from the measured absorbance values by using the software (Phototox 2.6, ZEBET at the BFR, Berlin Germany), and no statistical method was performed.

Each structure is given as a SMILES string. In brackets after ≈: the same amount, converted by molar mass. Several values for one entry are separate records, joined by “and”; a condition that tells them apart may be missing. Equal values may be shown once.

As to `CN(C)CCCN1c2ccccc2Sc2ccc(Cl)cc21` [CPZ], the “Cell viability (% of NC)” value is 102.67 % of NC (UV (+), 0.04 μg/mL); 89.09 % of NC (UV (+), 0.08 μg/mL); 98.75 % of NC (UV (+), 0.16 μg/mL); 106.73 % of NC (UV (+), 0.31 μg/mL); 103.10 % of NC (UV (+), 0.63 μg/mL); 11.51 % of NC (UV (+), 2.5 μg/mL). The “Cell viability (% of NC)” value reads like this: (UV (+), 5 μg/mL) 12.32 % of NC; (UV (−), 1.56 μg/mL) 109.65 % of NC; (UV (−), 3.13 μg/mL) 103.07 % of NC; (UV (−), 6.25 μg/mL) 114.87 % of NC; (UV (−), 25 μg/mL) 65.55 % of NC; (UV (−), 50 μg/mL) 9.50 % of NC. For the same compound, the “Cell viability (% of NC)” value (UV (−), 100 μg/mL) is on record as 9.37 % of NC and the “Cell viability (% of NC)” value (UV (−), 200 μg/mL) was 9.31 % of NC. For the same compound, the “IC50 (50% inhibitory concentration, cell viability)” value reads like this: (UV (+), UVA 5 J/cm^2, listed as PC) 1.650 µg/mL (≈ 5.17 µM); (UV (−), UV not irradiated, listed as PC) 28.043 µg/mL (≈ 87.9 µM). The “PIF (Photo irritation factor)” value runs as follows: (listed as PC) 17.144; (listed as positive control material) 17.1444 and 17.144. Also, the “MPE (Mean photo effect)” value (calculated from concentration response with and without UV (Phototox 2.6)) is reported as 0.459.

The values are drawn from patent publication US20230220122A1, “METHOD FOR PRODUCTION OF FUNCTIONAL POLYSACCHARIDE AND COSMETIC COMPOSITION” (CARBOEXPERT INC., priority 2019, published 2023).
